Reference: ChEMBL document CHEMBL3991601, “The target landscape of clinical kinase drugs” (Science, 2017)
pKd: −log10 of the molar value. The source made the active and inactive calls. For most assays here, no stated cut-off is given here; in the data, actives have a measured Kd and inactives only a lower limit.

What was measured:
[1] = biological target: RAC-alpha serine/threonine-protein kinase (Homo sapiens, UniProt P31749)
[2] = biological target: Cyclin-dependent kinase 13 (Homo sapiens, UniProt Q14004)
[3] = biological target: Cyclin-dependent kinase 6 (Homo sapiens, UniProt Q00534)
[4] = biological target: T1, dCTP pyrophosphatase 1 (Homo sapiens, UniProt Q9H773)
T1 sequence (Q9H773 whole entry): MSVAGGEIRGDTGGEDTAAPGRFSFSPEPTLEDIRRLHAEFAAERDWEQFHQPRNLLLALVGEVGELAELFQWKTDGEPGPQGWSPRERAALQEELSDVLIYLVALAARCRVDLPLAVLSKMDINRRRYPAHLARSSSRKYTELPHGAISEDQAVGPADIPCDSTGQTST

[5] = biological target: T2, Mitogen-activated protein kinase kinase kinase kinase 2 (Homo sapiens, UniProt Q12851)
T2 sequence (Q12851 whole entry): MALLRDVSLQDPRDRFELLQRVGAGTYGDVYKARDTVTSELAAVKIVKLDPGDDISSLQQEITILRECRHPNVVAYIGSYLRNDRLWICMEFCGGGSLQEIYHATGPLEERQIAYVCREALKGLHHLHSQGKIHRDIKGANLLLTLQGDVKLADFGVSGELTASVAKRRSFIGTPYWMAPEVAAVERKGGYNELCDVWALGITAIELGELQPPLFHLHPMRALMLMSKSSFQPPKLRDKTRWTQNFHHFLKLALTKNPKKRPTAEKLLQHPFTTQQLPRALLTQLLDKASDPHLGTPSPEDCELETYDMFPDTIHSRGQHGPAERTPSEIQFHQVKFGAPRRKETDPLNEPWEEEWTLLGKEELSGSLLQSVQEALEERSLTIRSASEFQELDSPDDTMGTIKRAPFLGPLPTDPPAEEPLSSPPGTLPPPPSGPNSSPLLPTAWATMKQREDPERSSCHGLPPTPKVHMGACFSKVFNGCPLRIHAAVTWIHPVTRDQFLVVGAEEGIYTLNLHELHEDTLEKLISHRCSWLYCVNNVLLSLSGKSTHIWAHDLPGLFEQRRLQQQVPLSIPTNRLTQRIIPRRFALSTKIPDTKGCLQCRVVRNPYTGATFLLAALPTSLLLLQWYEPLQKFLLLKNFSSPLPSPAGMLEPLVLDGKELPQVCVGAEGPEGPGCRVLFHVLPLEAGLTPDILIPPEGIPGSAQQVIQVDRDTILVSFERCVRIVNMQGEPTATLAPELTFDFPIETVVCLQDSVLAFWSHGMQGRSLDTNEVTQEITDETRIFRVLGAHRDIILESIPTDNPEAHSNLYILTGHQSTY

[6] = biological target: Mitogen-activated protein kinase 1 (Homo sapiens, UniProt P28482)
[7] = biological target: T3, Serine/threonine-protein kinase NLK (Homo sapiens, UniProt Q9UBE8)
T3 sequence (Q9UBE8 whole entry): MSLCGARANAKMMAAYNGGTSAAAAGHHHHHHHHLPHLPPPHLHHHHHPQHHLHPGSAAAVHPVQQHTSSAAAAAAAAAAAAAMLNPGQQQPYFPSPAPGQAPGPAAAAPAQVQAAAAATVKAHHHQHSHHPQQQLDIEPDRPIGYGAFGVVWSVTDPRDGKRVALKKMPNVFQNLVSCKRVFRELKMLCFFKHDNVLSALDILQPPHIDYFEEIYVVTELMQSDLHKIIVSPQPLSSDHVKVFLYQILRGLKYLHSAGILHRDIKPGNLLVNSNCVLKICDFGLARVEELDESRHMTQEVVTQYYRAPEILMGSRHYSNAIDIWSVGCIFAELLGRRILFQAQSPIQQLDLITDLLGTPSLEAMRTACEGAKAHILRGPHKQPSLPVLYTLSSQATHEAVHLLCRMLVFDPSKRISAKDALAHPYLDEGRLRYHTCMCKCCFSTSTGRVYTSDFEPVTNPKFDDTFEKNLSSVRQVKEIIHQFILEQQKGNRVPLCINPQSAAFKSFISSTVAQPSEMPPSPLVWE

[8] = biological target: Ribosomal protein S6 kinase alpha-5 (Homo sapiens, UniProt O75582)
[9] = biological target: U5 small nuclear ribonucleoprotein 200 kDa helicase (Homo sapiens, UniProt O75643)
[10] = biological target: TGF-beta receptor type-2 (Homo sapiens, UniProt P37173)
[11] = biological target: T4, Non-receptor tyrosine-protein kinase TNK1 (Homo sapiens, UniProt Q13470)
T4 sequence (Q13470 whole entry): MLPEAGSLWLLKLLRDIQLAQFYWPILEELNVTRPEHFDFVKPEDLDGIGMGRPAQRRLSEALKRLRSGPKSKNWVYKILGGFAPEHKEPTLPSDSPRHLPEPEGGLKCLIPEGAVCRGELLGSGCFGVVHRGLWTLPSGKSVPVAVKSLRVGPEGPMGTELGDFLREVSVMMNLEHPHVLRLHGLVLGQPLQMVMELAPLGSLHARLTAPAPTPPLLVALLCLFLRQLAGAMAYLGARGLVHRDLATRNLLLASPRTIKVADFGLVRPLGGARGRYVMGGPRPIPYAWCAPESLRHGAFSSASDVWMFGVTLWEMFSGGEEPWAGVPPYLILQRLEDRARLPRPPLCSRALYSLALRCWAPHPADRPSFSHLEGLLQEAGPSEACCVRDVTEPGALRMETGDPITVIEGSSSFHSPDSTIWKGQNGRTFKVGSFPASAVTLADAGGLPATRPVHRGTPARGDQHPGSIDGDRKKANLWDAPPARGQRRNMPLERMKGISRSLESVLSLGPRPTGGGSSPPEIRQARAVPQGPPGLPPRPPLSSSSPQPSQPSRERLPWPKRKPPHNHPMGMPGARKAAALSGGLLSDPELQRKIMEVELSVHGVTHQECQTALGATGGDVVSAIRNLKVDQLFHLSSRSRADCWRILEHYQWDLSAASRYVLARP

Chain of Cyclin-dependent kinase 6 (Q00534 whole entry): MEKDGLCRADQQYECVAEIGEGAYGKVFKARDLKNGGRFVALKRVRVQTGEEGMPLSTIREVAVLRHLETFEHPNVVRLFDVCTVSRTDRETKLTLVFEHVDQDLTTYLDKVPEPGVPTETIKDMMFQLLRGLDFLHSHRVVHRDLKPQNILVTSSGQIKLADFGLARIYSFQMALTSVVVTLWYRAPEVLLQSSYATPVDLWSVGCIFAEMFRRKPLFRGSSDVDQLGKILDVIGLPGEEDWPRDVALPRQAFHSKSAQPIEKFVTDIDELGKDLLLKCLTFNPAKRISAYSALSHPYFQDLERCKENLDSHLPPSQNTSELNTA
Chain of Ribosomal protein S6 kinase alpha-5 (O75582 whole entry): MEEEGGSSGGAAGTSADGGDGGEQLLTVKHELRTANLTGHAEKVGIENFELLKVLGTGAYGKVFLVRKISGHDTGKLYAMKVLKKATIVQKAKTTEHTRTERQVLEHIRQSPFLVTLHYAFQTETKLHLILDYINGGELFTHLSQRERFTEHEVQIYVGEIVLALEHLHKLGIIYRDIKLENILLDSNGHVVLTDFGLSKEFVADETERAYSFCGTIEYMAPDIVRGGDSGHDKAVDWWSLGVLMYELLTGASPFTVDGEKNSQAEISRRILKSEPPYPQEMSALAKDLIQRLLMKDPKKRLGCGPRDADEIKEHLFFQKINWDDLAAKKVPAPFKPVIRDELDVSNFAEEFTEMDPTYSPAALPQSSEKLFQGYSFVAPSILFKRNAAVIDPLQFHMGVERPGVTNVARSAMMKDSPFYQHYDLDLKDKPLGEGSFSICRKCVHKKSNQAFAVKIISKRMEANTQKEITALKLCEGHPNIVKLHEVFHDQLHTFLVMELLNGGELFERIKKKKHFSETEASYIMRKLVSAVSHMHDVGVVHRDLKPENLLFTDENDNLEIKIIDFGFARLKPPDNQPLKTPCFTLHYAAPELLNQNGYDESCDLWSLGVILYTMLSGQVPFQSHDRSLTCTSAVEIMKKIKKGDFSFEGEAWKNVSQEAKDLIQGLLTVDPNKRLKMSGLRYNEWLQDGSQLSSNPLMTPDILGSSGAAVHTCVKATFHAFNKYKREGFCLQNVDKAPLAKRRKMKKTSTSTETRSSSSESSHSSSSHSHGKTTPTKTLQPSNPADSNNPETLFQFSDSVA
Chain of Cyclin-dependent kinase 13 (Q14004 whole entry): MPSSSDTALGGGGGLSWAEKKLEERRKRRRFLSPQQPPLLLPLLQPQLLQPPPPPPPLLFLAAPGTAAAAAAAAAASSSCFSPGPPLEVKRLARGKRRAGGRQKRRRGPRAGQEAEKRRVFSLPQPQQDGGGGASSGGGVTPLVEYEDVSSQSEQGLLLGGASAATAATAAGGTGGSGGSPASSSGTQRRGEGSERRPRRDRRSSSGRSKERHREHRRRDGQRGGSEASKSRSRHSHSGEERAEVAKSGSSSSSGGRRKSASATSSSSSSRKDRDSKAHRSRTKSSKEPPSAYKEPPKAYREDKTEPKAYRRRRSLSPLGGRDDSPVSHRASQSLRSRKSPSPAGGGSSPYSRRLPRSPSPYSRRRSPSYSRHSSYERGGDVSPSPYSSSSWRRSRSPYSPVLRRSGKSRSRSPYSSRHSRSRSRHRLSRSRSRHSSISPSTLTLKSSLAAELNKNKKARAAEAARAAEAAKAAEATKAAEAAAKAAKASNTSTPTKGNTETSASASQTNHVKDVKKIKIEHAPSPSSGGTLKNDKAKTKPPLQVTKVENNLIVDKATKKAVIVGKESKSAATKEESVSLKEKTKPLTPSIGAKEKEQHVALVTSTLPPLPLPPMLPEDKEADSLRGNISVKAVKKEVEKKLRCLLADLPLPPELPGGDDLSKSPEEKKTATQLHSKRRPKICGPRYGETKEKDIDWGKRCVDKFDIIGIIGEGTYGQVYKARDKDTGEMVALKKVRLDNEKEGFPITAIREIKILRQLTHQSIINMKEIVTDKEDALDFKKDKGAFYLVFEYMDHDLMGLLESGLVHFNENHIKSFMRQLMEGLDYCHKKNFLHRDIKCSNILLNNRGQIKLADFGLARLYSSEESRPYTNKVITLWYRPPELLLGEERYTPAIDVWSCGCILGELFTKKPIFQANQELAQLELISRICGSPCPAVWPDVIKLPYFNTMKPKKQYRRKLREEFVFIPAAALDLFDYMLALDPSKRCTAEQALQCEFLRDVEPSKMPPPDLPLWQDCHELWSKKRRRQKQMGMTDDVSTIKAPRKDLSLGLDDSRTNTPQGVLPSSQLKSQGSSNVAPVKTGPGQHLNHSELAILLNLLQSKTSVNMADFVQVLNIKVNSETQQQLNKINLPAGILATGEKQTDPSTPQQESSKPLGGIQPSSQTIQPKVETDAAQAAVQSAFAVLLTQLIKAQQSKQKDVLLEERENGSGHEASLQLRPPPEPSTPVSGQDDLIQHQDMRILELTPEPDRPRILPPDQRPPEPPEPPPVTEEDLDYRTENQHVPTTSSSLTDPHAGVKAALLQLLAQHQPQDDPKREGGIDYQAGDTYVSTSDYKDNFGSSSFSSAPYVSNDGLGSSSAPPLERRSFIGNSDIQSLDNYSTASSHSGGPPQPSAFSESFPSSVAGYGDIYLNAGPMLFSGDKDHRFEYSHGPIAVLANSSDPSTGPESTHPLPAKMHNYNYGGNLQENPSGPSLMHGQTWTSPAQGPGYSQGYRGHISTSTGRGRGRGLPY
Chain of TGF-beta receptor type-2 (P37173 whole entry): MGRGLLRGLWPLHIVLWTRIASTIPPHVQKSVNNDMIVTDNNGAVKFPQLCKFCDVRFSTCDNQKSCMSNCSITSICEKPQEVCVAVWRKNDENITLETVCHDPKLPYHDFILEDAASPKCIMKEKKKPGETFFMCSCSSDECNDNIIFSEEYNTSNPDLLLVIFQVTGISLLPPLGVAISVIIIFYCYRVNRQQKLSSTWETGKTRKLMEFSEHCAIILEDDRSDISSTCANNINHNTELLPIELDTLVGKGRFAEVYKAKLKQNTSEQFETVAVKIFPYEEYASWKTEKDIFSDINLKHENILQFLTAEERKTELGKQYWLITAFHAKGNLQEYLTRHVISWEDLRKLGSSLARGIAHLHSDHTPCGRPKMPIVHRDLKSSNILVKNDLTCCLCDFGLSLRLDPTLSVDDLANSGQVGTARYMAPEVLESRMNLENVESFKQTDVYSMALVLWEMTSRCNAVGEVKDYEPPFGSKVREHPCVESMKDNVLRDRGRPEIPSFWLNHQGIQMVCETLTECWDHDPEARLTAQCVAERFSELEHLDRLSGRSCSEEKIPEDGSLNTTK
Chain of RAC-alpha serine/threonine-protein kinase (P31749 whole entry): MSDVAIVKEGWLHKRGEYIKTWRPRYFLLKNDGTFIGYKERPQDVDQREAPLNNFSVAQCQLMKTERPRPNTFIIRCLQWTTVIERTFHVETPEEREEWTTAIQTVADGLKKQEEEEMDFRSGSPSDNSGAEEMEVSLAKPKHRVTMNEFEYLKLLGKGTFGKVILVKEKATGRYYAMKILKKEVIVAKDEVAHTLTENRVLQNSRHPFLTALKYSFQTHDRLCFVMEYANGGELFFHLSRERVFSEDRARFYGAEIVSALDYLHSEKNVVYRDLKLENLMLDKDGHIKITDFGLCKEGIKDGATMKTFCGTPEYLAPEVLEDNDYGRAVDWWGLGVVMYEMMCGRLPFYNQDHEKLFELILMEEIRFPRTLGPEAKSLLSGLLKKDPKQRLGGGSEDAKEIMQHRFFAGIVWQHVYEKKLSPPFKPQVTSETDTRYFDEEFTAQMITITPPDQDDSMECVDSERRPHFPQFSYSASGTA
Chain of Mitogen-activated protein kinase 1 (P28482 whole entry): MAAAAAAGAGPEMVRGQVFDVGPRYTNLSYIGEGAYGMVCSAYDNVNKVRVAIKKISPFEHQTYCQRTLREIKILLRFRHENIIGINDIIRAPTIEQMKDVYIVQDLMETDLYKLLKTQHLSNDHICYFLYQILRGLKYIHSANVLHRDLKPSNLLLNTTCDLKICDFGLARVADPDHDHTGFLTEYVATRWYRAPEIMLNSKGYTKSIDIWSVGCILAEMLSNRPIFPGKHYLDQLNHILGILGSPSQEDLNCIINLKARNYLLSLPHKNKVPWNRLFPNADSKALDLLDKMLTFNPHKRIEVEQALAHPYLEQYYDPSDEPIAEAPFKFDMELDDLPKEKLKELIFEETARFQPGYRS

Compound | Kd [1] | Kd [2] | Kd [3] | Kd [4] | Kd [5] | Kd [6] | Kd [7] | Kd [8] | Kd [9] | Kd [10] | Kd [11] | pKd [7] | pKd [11]
CC[C@@H]1C(=O)N(C)c2cnc(Nc3ccc(C(=O)N[C@H]4CC[C@H](N5CCN(CC6CC6)CC5)CC4)cc3OC)nc2N1C(C)C [VOLASERTIB] | > 30 µM (inactive) | > 30 µM (inactive) | > 30 µM (inactive) | > 30 µM (inactive) | > 30 µM (inactive) | > 30 µM (inactive) | > 30 µM (inactive) | > 30 µM (inactive) | > 30 µM (inactive) | > 30 µM (inactive) | > 30 µM (inactive) | – | –
CN1CC[C@@H](c2c(O)cc(O)c3c(=O)cc(-c4ccccc4Cl)oc23)[C@@H]1CO | > 30 µM (inactive) | > 30 µM (inactive) | > 30 µM (inactive) | > 30 µM (inactive) | > 30 µM (inactive) | > 30 µM (inactive) | – | > 30 µM (inactive) | > 30 µM (inactive) | > 30 µM (inactive) | > 30 µM (inactive) | 5.83 | –
Cc1ccc(S(=O)(=O)Nc2nc3ccccc3nc2Nc2ccc3nsnc3c2)cc1 | > 30 µM (inactive) | > 30 µM (inactive) | > 30 µM (inactive) | > 30 µM (inactive) | > 30 µM (inactive) | > 30 µM (inactive) | > 30 µM (inactive) | > 30 µM (inactive) | > 30 µM (inactive) | > 30 µM (inactive) | > 30 µM (inactive) | – | –
COc1cc2nccc(Oc3ccc(NC(=O)NC4CC4)c(Cl)c3)c2cc1C(N)=O [LENVATINIB] | > 30 µM (inactive) | > 30 µM (inactive) | > 30 µM (inactive) | > 30 µM (inactive) | 0.578 µM (active) | > 30 µM (inactive) | > 30 µM (inactive) | > 30 µM (inactive) | > 30 µM (inactive) | > 30 µM (inactive) | > 30 µM (inactive) | – | –
COC(=O)N[C@@H](C)CNc1nccc(-c2cn(C(C)C)nc2-c2cc(Cl)cc(NS(C)(=O)=O)c2F)n1 [ENCORAFENIB] | > 30 µM (inactive) | > 30 µM (inactive) | > 30 µM (inactive) | > 30 µM (inactive) | > 30 µM (inactive) | > 30 µM (inactive) | 0.732 µM (active) | > 30 µM (inactive) | > 30 µM (inactive) | > 30 µM (inactive) | > 30 µM (inactive) | – | –
COCCNCc1ccc(-c2cc3nccc(Oc4ccc(NC(=S)NC(=O)Cc5ccc(F)cc5)cc4F)c3s2)nc1 [GLESATINIB] | > 30 µM (inactive) | > 30 µM (inactive) | > 30 µM (inactive) | > 30 µM (inactive) | > 30 µM (inactive) | > 30 µM (inactive) | > 30 µM (inactive) | > 30 µM (inactive) | > 30 µM (inactive) | > 30 µM (inactive) | 1.49 µM (active) | – | –
CCS(=O)(=O)N1CC(CC#N)(n2cc(-c3ncnc4[nH]ccc34)cn2)C1 [BARICITINIB] | > 30 µM (inactive) | > 30 µM (inactive) | > 30 µM (inactive) | > 30 µM (inactive) | > 30 µM (inactive) | > 30 µM (inactive) | > 30 µM (inactive) | > 30 µM (inactive) | > 30 µM (inactive) | > 30 µM (inactive) | – | – | 6.21
